Measured values from patent publication US8557733B2, “Composition for regenerating and stimulating growth of plants and for adapting plants to different stress factors” (Mitotech S.A., priority 2006, dated 2013).
“Also recorded” adds a separate entry of the source. Values belong to the molecule of their own block, whether it stands above or below them.

Experiments:
maize embryogenic callus = settings: cited from earlier work
maize callus cultures = settings: added to nutrient medium for callus initiation; cited from earlier work
sugar cane calli [1] = experiment: Survival of sugar cane calli after anaerobic stress; type: cell-based; settings: 48 hours anoxic, then aerobic medium with 10 nM SkQ1
Protocol: Effect of SkQ1 on survival of sugar cane calli following anaerobic stress was assessed. For this purpose, sugar cane calli were incubated for 48 hours under anoxic conditions and then were transferred under aerobic conditions at a nutrient medium containing 10 nM SkQ1or no SkQ1 (control).

stem tomato explants = experiment: Formation of shoots and roots from stem tomato explants; type: cell-based; settings: 10 nM SkQ1, 10 days
Protocol: (§1) Effect of SkQ1 on formation shoots and roots from leaf potato explants and stem tomato explants was investigated. Explants were incubated for 10 days in the presence of 10 nM SkQ1 or with no SkQ1.

leaf potato explants = experiment: Formation of shoots and roots from leaf potato explants; type: cell-based; settings: 10 nM SkQ1, 10 days
Protocol: as §1

sugar cane calli [2] = experiment: Shoot formation and plant regeneration from sugar cane calli; type: cell-based
Protocol: (§2) In this work, calli and explants of tobacco, sugar cane, maize, lucerne, potato and tomatoes were used. Calli were incubated at Petri dishes containing agarized Murashige-Skoog medium with […] and 1 mg/L 2,4-dichlorophenoxyacetic acid. The cultivation was carried out at temperature 26° C., illumination intensity of 2 cd and the length of daylight of 16 hours. SkQ1 was added to autoclaved and cooled (up to 45° C.) nutrient medium immediately before callus planting. SkQ1 at concentrations of 0, 1.5, 5, 10, 20, 30 and 50 nM was used. Increase of callus green weight, a fraction of calli with shoots and roots and an average number of organs per a morphogenetic callus were taken into account after one month of cultivation.
At the same time, development of shoots of calli transferred onto regeneration medium from medium without SkQ1 has been at the very initial stage.
To produce normal plants, sugar cane shoots formed by 10 nM SkQ1 were transferred onto rootage agarized medium containing the same optimum SkQ1 concentration (10 nM). After root formation, the plants were transferred into water medium and then displanted into the ground. Estimation of the plant state was performed at every stage.

Lucerne calli = experiment: Callus growth and regeneration ability of lucerne calli; type: cell-based
Protocol: as §2
Lucerne calli were cultivated for 1 month in the presence of different SkQ1 concentrations (0-10 nM). Effect of SkQ1 on callus growth (weight change) and regeneration ability (formation of calli with “green areas”) were assessed.

maize callus = experiment: Morphogenetic processes in maize callus; type: cell-based
Protocol: as §2
Dose-dependent effect of SkQ1 on morphogenetic processes in maize callus was shown. […] Variations in green weight resulted mainly from amount of formed roots.

rice seeds = experiment: Germination of rice seeds under water (anaerobic conditions); type: in vivo
Protocol: Effect of SkQ1 on germination of rice seeds under water (under anaerobic conditions) was studied. SkQ1 was added to water at concentrations of 0, 1, 3, 10, 30 nM.

tobacco leaf explants = experiment: Callus formation (dedifferentiation) and root formation in tobacco leaf explants; type: cell-based; settings: 0.6 μM SkQ1
Protocol: Effect of SkQ1 on callus formation (dedifferentiation) in tobacco leaf explants was investigated. Sterile leaf disks of plants Nicotiana tabacum cv Samsun were sliced with approximately 1 cm^2 size. The resulting explants were placed at standard MS medium for callus formation supplemented with phytohormones 0.5 mg/L 6-benzylaminopurine and 1 mg/L naphthylacetic acid. Test Petri plates were also supplemented with 0.6 μM SkQ1. Explants were cultivated in darkness for 5 weeks. During incubation callus was initially formed at wound explant surfaces.

wheat tussue culture = settings: wheat tissue culture; cited from earlier work
isolated embryos = settings: micromolar concentration; wheat; cited from earlier work
[3] = 1-10 nM SkQ1, one month of cultivation

Molecule: O=C(O)[C@@H]1CCCN1 [proline]
- number of regenerants per explant (maize embryogenic callus; 20 mM proline, 2.8 without): 7.6
- increase of frequency of embryogenic callus formation and plant regeneration (maize embryogenic callus; 400 mg/L proline in medium): 2-3 fold

Molecule: C1=CC2C=CC1C2 [norbornadiene]
- frequency of embryogenic callus formation (maize callus cultures): stimulated embryogenic callus formation

- development of shoots on regeneration medium (sugar cane calli [2]; 1000 nM SkQ1 in regeneration medium): destruction of shoots
- growth oppression (maize callus; high SkQ1 concentrations): No reliable growth oppression
Molecule: CC1=C(C)C(=O)C(CCCCCCCCCC[P+](c2ccccc2)(c2ccccc2)c2ccccc2)=CC1=O.[Br-] [SkQ1]
- capability for morphogenesis after anaerobic stress (sugar cane calli [1]): retain capability for morphogenesis
- survival of calli following anaerobic stress (sugar cane calli [1]): markedly higher capability for survival; also recorded: enhances resistance
- formation of shoots and roots (stem tomato explants): significantly enhances formation of both shoots and roots
- formation of shoots and roots (leaf potato explants): significantly enhances formation of both shoots and roots
- onset of formation of shoots from calli (sugar cane calli [2]; 10 nM SkQ1, control calli showed no shoot formation): 19 day of incubation
- rooting of shoots and production of plants (sugar cane calli [2]; 10 nM SkQ1, rootage medium, then water medium and ground): take roots properly and give normal viable plants
- development of formed shoots on agarized regeneration medium (sugar cane calli [2]; 10 nM SkQ1 in regeneration medium): continued to develop normally
- development of shoots on regeneration medium (sugar cane calli [2]; 100 nM SkQ1 in regeneration medium): termination of further development of shoots
- shoot formation from undifferentiated tissue of sugar cane (sugar cane calli [2]; FIG. 1): stimulates shoot formation
- viability of shoots (sugar cane calli [2]; formed and further cultivated at 100 nM or 1000 nM SkQ1): nonviable and died
- onset of shoot formation from calli (sugar cane calli [2]; higher SkQ1 concentrations (above 10 nM)): > 31 days
- amount of calli with shoot formation (sugar cane calli [2]; higher SkQ1 concentrations, compared with 10 nM): in lesser amount of calli
- callus growth (weight change) (Lucerne calli; 0-10 nM SkQ1, 1 month): does not affect significantly callus growth
- stimulation of regeneration (formation of calli with green areas) (Lucerne calli; 5 nM SkQ1, 1 month): 2.5-3 fold
- stimulation of regeneration (Lucerne calli; SkQ1 concentrations higher than 5 nM): positive effect eliminates
- callus accretion (green weight) (maize callus; 0-50 nM SkQ1): did not affect essentially callus accretion
- amount of rhizogenic calli (maize callus; 1-10 nM SkQ1): No reliable increase
- average number of roots per callus (maize callus; 1-10 nM SkQ1): increased significantly
- average number of shoots per callus (maize callus; [3]): increase of an average number of shoots per callus
- inoculum fraction that forms shoots (maize callus; [3]): increase of inoculum fraction that forms shoots
- morphogenesis (maize callus; SkQ1 at 20 nM and higher, shoot formation affected more than rhizogenesis): inhibited morphogenesis
- rhizogenesis on repeated callus cultivation (maize callus; repeated cultivation, same medium composition): even more pronounced amplification of rhizogenesis
- germination of rice seeds under water (rice seeds; 1 nM SkQ1 in water): enhance significantly germination; also recorded: dramatically enhances germination
- germination of rice seeds under water (rice seeds; SkQ1 at concentrations higher than 1 nM (3, 10, 30 nM)): does not reveal such a stimulating effect
- root formation from callus tissues (tobacco leaf explants; darkness, 5 weeks, controls showed no root formation): secondary differentiation of callus tissues with root formation; also recorded: stimulates root formation
- state of differentiated explant tissues on further incubation (tobacco leaf explants; newly formed root tissues did well): necrotized and died

Molecule: xyloglucan pentasaccharide
- enhancement of morphogenesis (wheat tussue culture): 1.5-2 fold

Molecule: CC1=CC(=O)CC(C)(C)[C@@]1(O)/C=C/C(C)=C\C(=O)O [abscisic acid]
- embryogenic callus formation (isolated embryos): stimulated embryogenic callus formation

Molecule: NC1(C(=O)O)CC1 [1-aminocyclopropane-1-carboxylic acid]
- decrease of a number of produced regenerants (maize callus cultures): 68%
- frequency of embryogenic callus formation (maize callus cultures): significant reduction

Molecule: O=[N+]([O-])[O-].[Ag+] [silver nitrate]
- frequency of embryogenic callus formation (maize callus cultures): stimulated embryogenic callus formation
